Measurements as given in patent US11835499B2, “Methods of quantifying methylglyoxal-induced nucleic acid adducts” (CITY OF HOPE, priority 2018, dated 2023).

Experiments:
[1] = Stability of CEdG in acidic solution (acid-catalyzed depurination and sidechain isomerization); type: physicochemical; conditions: acidic hydrolysis, 1 M AcOH at 37° C.
Protocol: A 1.25 mM solution of CEdG-A, B or dG in 100 μL of 1M AcOH (pH 2.4) was stirred at 37° C. Aliquots (10 μl) were removed periodically and added to 40 μL of 2M TEAA (pH 7.0). HPLC product analyses were performed using an Alltech HS HyperPrep 100 BDS C18 8μ column. A gradient of 0 to 4% CH3CN over 5 min was followed by 6.5% CH3CN over 30 min. TEAA (pH 7) was kept constant at 50 mM. The ratio of free base (CEGuanine or Guanine) to intact nucleoside (CEdG or dG) was calculated by integration of the corresponding HPLC peaks (see inset in FIG. 4). The CEG free base was identified as Peak A by ESI-MS in negative ion mode. C8H8O3N5, observed: m/z 222.064; calculated: m/z 222.063.
The chemical stability of CEdG was examined as an important criterion for evaluating its suitability as a quantitative biomarker. Purified stereoisomers of synthetic CEdG were subjected to acidic conditions (1 M AcOH at 37° C.) and the extent of released free base and diastereomer interconversion was monitored by HPLC as a function of time.

[2] = tested on: calf thymus DNA; assay: Artifactual CEdG formation in calf thymus DNA during workup, with carbonyl scavenger
Protocol: Calf thymus or tissue-extracted DNA (100 μg) was dissolved in 80 μL of autoclaved 18.2 MΩ H2O containing 20 μL of sodium acetate (100 mM, pH 5.5), 20 μL of 1×TBE, 1.5 μL of 50 mM ZnCl2, and 2.37 μL of a 100 mM AG or D-P stock solution. DNA was denatured at 95° C. for 5 min on a PCR heating block and then brought to 4° C. for 5 min. After equilibration to 45° C., 1.5 μL of 10 U/μL nuclease P1 was added. Alkaline phosphatase (4 μL of 8 U/μL), 1 U of bovine phosphodiesterase, and 14 μL of 100 mM CaCl2 were added after 1 hour, and the hydrolysis/dephosphorylation was continued for another 7 hours. […] DNA concentrations were determined by UV spectroscopy (1 OD260=50 μg/ml) and samples were stored at −80° C. prior to MS analyses. A 5 μL aliquot of digest was diluted to 200 μL and used for quantitation of 2′-deoxyguanosine by HPLC integration using a Beckman C18 reverse phase (25 cm×4.6 mm) column (Fullerton, CA). […]
Commercial grade calf thymus DNA was used as a model substrate for developing a protocol for CEdG quantitation in double-stranded DNA. […] Concentrations of AG from 0.5 to 50 mM were added prior to workup, and CEdG levels were measured in order to determine the optimal concentration required to achieve stable, reproducible levels. […]

[3] = tested on: DNA extracted from breast tumor or adjacent tissue; assay: Artifactual CEdG formation during DNA extraction from human breast tumor and adjacent tissue, with carbonyl scavenger; conditions: 10 mM D-penicillamine in two aliquots during cell lysis/DNA isolation and hydrolysis/dephosphorylation
Protocol: Breast tumor and adjacent normal tissue were obtained from the frozen tumor bank of the City of Hope Pathology Core. A pea-sized section (˜100 mg) of tissue was minced and suspended in 1.2 mL of digestion buffer (100 mM NaCl, 10 mM Tris HCl, pH 8, 25 mM EDTA, pH 8, 0.5% SDS, 0.2 mg/mL proteinase K, 10 mM D-penicillamine) and incubated at 50° C. in a water bath for 12-18 h. DNA was then extracted using an equivalent volume of phenol/chloroform/isoamyl alcohol (25:24:1). The aqueous fraction was separated and 0.5 volumes of ammonium acetate and 2 volumes of 100% ethanol were added. The DNA was spooled, washed twice with 70% ethanol, pelleted, and resuspended in autoclaved 18.2 MΩ water. The enzymatic hydrolysis was carried out as described above.
Levels of CEdG in DNA extracted from either breast tumor or adjacent tissue in the absence of carbonyl scavenger were ˜1.5-2.0-fold higher; however, artifactual formation was inhibited by the addition of 10 mM D-penicillamine in two aliquots during both the cell lysis/DNA isolation and hydrolysis/dephosphorylation steps. ^15N-enriched isotopomers of CEdG differing from the unlabeled adducts by 5 amu were synthesized, which provided sufficient mass resolution for accurate and reproducible quantitation using the stable isotope dilution method.

## CC(Nc1nc2c(ncn2[C@H]2C[C@H](O)[C@@H](CO)O2)c(=O)[nH]1)C(=O)O (single isomer, unassigned) [CEdG-A, N^2-(1-carboxyethyl)-2′-deoxyguanosine]
[1]
  racemization of the sidechain stereocenter / interconversion of CEdG isomers A and B: No racemization

## CC(Nc1nc2c(ncn2[C@H]2C[C@H](O)[C@@H](CO)O2)c(=O)[nH]1)C(=O)O (single isomer, unassigned) [CEdG-B, N^2-(1-carboxyethyl)-2′-deoxyguanosine]
[1]
  racemization of the sidechain stereocenter / interconversion of CEdG isomers A and B: No racemization

## N=C(N)NN [AG, aminoguanidine]
[2]; 10 mM AG added prior to sample processing, without scavenger 60-66 CEdG/10^6 dG
  CEdG adduct levels after hydrolysis/dephosphorylation: 45-50 CEdG/10^6 guanines
[2]; 10 mM AG in two aliquots, without scavenger 80-100 CEdG/10^6 guanines
  CEdG levels after mock proteolysis and hydrolysis/dephosphorylation: drop in measured CEdG levels

## CC(C)(S)[C@@H](N)C(=O)O [D-penicillamine]
[3]
  artifactual CEdG formation: inhibited
